{
  "source": "patent US7563774B2",
  "about": "“Combination of FBPase inhibitors and antidiabetic agents useful for the treatment of diabetes” (Metabasis Therapeutics, Inc., priority 2000, dated 2009)",
  "key": {"C57BL/KsJ db/db mice [1]": {"system": "C57BL/KsJ db/db mice", "assay": "Acute combination treatment of insulin and Compound G in db/db mice (Example Z)", "format": "in vivo, mouse", "description": "Male C57BL/KsJ db/db mice were purchased at 5 weeks of age from Clea Japan, Inc. (Tokyo, Japan). The mice were maintained under standard vivarium conditions (24-26° C., 12-hour light cycle, 12-hour dark cycle) and received standard chow and water ad libitum. At 20 weeks of age, animals were divided into 4 groups (n=6/group). The treatment groups were control, compound G, insulin, and the combination of compound G and insulin. […] Insulin (human recombinant insulin, Penfill R300, Novo Nordisk, Denmark) was injected subcutaneously at a dose of 1.5 U/kg. Food was removed after treatment. Blood glucose levels in tail vein samples were measured by means of a Glucoloader-F, an automatic glucose analyzer, (A&T Co., Ltd., Tokyo, Japan)."}, "db/db mice": {"system": "db/db mice", "assay": "Glucose lowering in the db/db mouse (Example V)", "format": "in vivo", "settings": "last treatment day (day 18)", "description": "Treatment was for 18 days. […] Differences between groups were evaluated by the Student's t-test. Results are considered significant with p<0.05."}, "Sprague Dawley rats": {"system": "Sprague Dawley rats", "assay": "Oral glucose lowering in overnight fasted Sprague Dawley rats (Example G)", "format": "in vivo, rat", "settings": "4 h", "description": "Oral efficacy of Compound J was assessed in overnight fasted Sprague Dawley rats. […] At 1.5 h or 4 h post drug administration, a blood sample was taken from the tail vein and analyzed for blood glucose by means of an automated glucose analyzer (HemoCue, HemoCue Inc, Mission Viejo, Calif.)."}, "C57BL/KsJ db/db mice [2]": {"system": "C57BL/KsJ db/db mice", "assay": "Chronic combination treatment of insulin and Compound G in db/db mice (Example AA)", "format": "in vivo, mouse", "settings": "db/db mice, 3 weeks", "description": "Male C57BL/KsJ db/db mice were purchased at 5 weeks of age from Clea Japan, Inc. (Tokyo, Japan). The mice were maintained under standard vivarium conditions (24-26° C., 12-hour light cycle, 12-hour dark cycle) and received standard chow and water ad libitum. At 16 weeks of age, animals were divided into 2 groups (n=5 or 9-10/group). Both groups were subcutaneously injected with human recombinant insulin (Penfill N300, Novo Nordisk, Denmark) on a daily basis to adjust plasma glucose levels to the target range of 250 to 300 mg/dL."}, "[3]": {"system": "Zucker Diabetic Fatty (ZDF) rat", "assay": "Glucose lowering in the ZDF rat (Example W)", "format": "in vivo", "source_text": "The Zucker Diabetic Fatty (ZDF) rat is widely used as a model for human NIDDM as the progression of the disease in these rodents is similar to that described for human […] patients. […] Clark J B, Palmer C J (1982) Diabetes 30: 126A Terrettaz J, Jeanrenaud B (1983) Endocrinology 112: 1346-1351."}, "[4]": {"system": "streptozotocin diabetic Sprague Dawley rats", "assay": "Acute combination treatment of an FBPase inhibitor and an amylin agonist in streptozotocin diabetic rats (Example HH)", "format": "in vivo, rat", "settings": "pramlintide 10 micrograms i.v., Compound J 300 mg/kg p.o.", "description": "Animals are then gavaged with 1 mL 50% glucose, and allowed ad libitum access to food. Blood glucose is collected from the tail vein at 0, 30, 60, 120, 180, and 240 minutes following glucose administration."}, "[5]": {"system": "streptozotocin-induced diabetic rat", "assay": "Chronic combination treatment of a fatty acid oxidation inhibitor and an FBPase inhibitor in the streptozotocin-induced diabetic rat (Example JJ)", "format": "in vivo", "settings": "etomoxir 3-300 mg/kg s.c., Compound J 0.2% w/w food admixture, 2-6 weeks", "description": "Male Sprague-Dawley rats (Charles Rivers Laboratories) weighing approximately 120 g at the beginning of the study are housed under standard vivarium conditions and fed standard chow (Purina 5001). Rats are rendered diabetic by injection of 55 mg/kg body weight of streptozotocin (STZ) in citrate buffer, pH 4.7. […] Drug treatment is continued for 2-6 weeks. Blood glucose levels are monitored at regular intervals during the treatment period. At the end of the study, rats are anesthetized and instrumented with jugular vein and carotid artery catheters. Hepatic glucose production is measured using a primed constant infusion of (^3H)-6-glucose. Blood samples are taken after two hours, and the specific activity of glucose measured by […]. Hepatic glucose production rater are calculated by standard methods."}, "Db/db or ob/ob mice": {"system": "Db/db or ob/ob mice", "assay": "Acute combination treatment of a glycogen phosphorylase inhibitor and an FBPase inhibitor in db/db or ob/ob mice (Example FF)", "format": "in vivo, mouse", "settings": "0.5 to 300 mg/kg p.o.", "description": "Db/db or ob/ob mice are purchased at 5 weeks of age from Jackson Laboratories (Bar Harbor, Me.). The mice are maintained under standard vivarium conditions (24-26° C., 12-hour light cycle, 12-hour dark cycle) and receive standard chow and water ad libitum. At more than 10 weeks of age, animals are divided into 4 groups (n=5 to 7/group). […] Food is made available after treatment. Blood glucose levels in tail vein samples are measured by means of standard manual or automated methods."}, "mouse liver FBPase": {"target": "T1, mouse liver FBPase (Mus musculus, UniProt Q9QXD6)", "T1 construct": "This partially purified fraction was used for enzyme assays; from tissue; host or cells: mouse liver (45-75% ammonium sulfate fraction of homogenate)", "T1 sequence (Q9QXD6 2-338 limits assumed)": "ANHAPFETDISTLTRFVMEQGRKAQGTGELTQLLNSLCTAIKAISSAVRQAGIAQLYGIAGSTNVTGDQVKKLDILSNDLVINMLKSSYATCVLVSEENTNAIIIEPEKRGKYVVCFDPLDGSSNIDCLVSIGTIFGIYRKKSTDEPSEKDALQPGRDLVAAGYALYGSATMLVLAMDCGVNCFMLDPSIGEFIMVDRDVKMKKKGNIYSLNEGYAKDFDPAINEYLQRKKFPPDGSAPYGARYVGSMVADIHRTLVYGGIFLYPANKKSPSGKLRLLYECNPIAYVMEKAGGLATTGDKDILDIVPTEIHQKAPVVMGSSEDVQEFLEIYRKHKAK", "assay": "Inhibition of mouse liver FBPase (Example B)", "format": "biochemical", "method": "(§1) Enzymatic activity was measured spectrophotometrically in reactions that coupled the formation of product (fructose 6- phosphate) to the reduction of dimethylthiazoldiphenyltetrazolium bromide (MTT) via NADP and phenazine methosulfate (PMS), using phosphoglucose isomerase and glucose 6-phosphate dehydrogenase as the coupling enzymes. […] Inhibitor concentrations were varied from 0.01 μM to 10 μM. Reactions were started by the addition of 0.002 units of pure hlFBPase and were monitored for 7 minutes at 590 nm in a Molecular Devices Plate Reader (37° C.).\nMouse liver FBPase was obtained by homogenizing freshly isolated mouse liver in 100 mM Tris-HCl buffer, pH 7.4, containing 1 mM EGTA, and 10% glycerol. […] This fraction was redissolved in the homogenization buffer and desalted on a PD-10 gel filtration column (Biorad) eluted with same. This partially purified fraction was used for enzyme assays."}, "human liver FBPase": {"target": "T2, human liver FBPase (Homo sapiens, UniProt P09467)", "T2 construct": "made in house; host or cells: E. coli BL21", "T2 sequence (P09467 2-338 limits assumed)": "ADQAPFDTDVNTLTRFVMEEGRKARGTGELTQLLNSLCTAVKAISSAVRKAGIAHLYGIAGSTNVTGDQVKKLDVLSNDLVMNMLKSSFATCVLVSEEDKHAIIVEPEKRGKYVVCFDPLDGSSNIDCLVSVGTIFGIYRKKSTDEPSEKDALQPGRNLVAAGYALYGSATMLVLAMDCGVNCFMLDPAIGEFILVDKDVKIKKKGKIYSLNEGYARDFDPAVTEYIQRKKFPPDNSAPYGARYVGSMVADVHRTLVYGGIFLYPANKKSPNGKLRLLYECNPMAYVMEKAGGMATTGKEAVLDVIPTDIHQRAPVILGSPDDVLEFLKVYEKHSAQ", "assay": "Inhibition of human liver FBPase (Example A)", "format": "biochemical", "method": "as §1"}, "rat liver FBPase": {"target": "T3, rat liver FBPase (Rattus norvegicus, UniProt P19112)", "T3 construct": "made in house; host or cells: E. coli BL21", "T3 sequence (P19112 2-363 limits assumed)": "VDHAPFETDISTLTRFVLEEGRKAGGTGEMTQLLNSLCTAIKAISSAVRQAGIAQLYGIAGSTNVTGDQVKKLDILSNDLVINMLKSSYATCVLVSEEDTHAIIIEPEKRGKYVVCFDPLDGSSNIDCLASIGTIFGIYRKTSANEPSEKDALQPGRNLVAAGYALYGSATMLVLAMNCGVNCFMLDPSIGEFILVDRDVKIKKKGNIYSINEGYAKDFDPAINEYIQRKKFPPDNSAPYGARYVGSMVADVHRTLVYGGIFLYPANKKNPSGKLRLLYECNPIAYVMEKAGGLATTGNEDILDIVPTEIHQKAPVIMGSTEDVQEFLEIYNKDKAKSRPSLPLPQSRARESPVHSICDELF", "assay": "Inhibition of rat liver FBPase (Example B)", "format": "biochemical"}},
  "data": [
    {"smiles": "CSc1sc(N)nc1-c1ccc(P(=O)(O)O)o1", "note": "[Compound G, 2-Amino-5-methylthio-4-[2-(5-phosphono)furanyl]thiazole]", "values": [
      {"measurement": "Plasma Glucose, % of pretreatment values", "setting": "C57BL/KsJ db/db mice [1]; after 1 hour", "result": "(84.2 +/− 1.9) %"},
      {"measurement": "Plasma Glucose", "setting": "C57BL/KsJ db/db mice [1]; after 1 hour, Compound G 200 mg/kg p.o., insulin 1.5 U/kg s.c.", "result": "650.8 ± 14.8", "unit": "mg/dL"},
      {"measurement": "Plasma Glucose", "setting": "C57BL/KsJ db/db mice [1]; after 4 hours", "result": "373.7 ± 24.7", "unit": "mg/dL"},
      {"measurement": "Plasma Glucose, % of pretreatment values", "setting": "C57BL/KsJ db/db mice [1]; after 4 hours", "result": "(48.6 +/− 4.0) %"},
      {"measurement": "Plasma Glucose", "setting": "C57BL/KsJ db/db mice [1]; after […]", "result": "459.7 ± 11.5", "unit": "mg/dL"},
      {"measurement": "Plasma Glucose, % of pretreatment values", "setting": "C57BL/KsJ db/db mice [1]; after […]", "result": "(59.6 +/− 2.3) %"},
      {"measurement": "Plasma Glucose", "setting": "C57BL/KsJ db/db mice [1]; before (0 hour)", "result": "774.0 ± 18.3", "unit": "mg/dL"},
      {"measurement": "Plasma Glucose, % of pretreatment values", "setting": "C57BL/KsJ db/db mice [1]; before (0 hour)", "result": "(100.0 +/− 0.0) %"},
      {"measurement": "plasma glucose lowering", "setting": "C57BL/KsJ db/db mice [1]; db/db mice, acute", "result": "progressively decreased plasma glucose levels"},
      {"measurement": "blood glucose levels versus control group", "setting": "db/db mice", "result": "significantly lower than those in the control group"},
      {"measurement": "Glucose Lowering, %", "setting": "Sprague Dawley rats; Compound G 10 mg/kg p.o.", "result": 48, "unit": "%"},
      {"measurement": "Glucose Lowering, %", "setting": "Sprague Dawley rats; Compound G 30 mg/kg p.o.", "result": ">70", "unit": "%"},
      {"measurement": "insulin dose required to lower plasma glucose to the target range", "setting": "C57BL/KsJ db/db mice [2]", "result": "remarkably decreased the insulin dose required"},
      {"measurement": "glycemic control", "setting": "[3]", "result": "significantly improved glycemic control"},
      {"measurement": "Blood Glucose", "setting": "[3]; 0.2% food admixture, Day 14", "result": "530 ± 48", "unit": "mg/dL"}
    ]},
    {"smiles": "CC[C@H](C)[C@H](NC(=O)[C@@H]1CCCN1C(=O)CNC(=O)[C@H](Cc1ccccc1)NC(=O)[C@H](CC(N)=O)NC(=O)[C@H](CC(N)=O)NC(=O)[C@H](CO)NC(=O)[C@H](CO)NC(=O)[C@H](Cc1c[nH]cn1)NC(=O)[C@@H](NC(=O)[C@H](CC(C)C)NC(=O)[C@H](Cc1ccccc1)NC(=O)[C@H](CC(N)=O)NC(=O)[C@H](C)NC(=O)[C@H](CC(C)C)NC(=O)[C@H](CCCNC(=N)N)NC(=O)[C@H](CCC(N)=O)NC(=O)[C@@H](NC(=O)[C@H](C)NC(=O)[C@@H]1CSSC[C@H](NC(=O)[C@@H](N)CCCCN)C(=O)N[C@@H](CC(N)=O)C(=O)N[C@@H]([C@@H](C)O)C(=O)N[C@@H](C)C(=O)N[C@@H]([C@@H](C)O)C(=O)N1)[C@@H](C)O)C(C)C)C(=O)N[C@@H](CC(C)C)C(=O)N1CCC[C@H]1C(=O)N1CCC[C@H]1C(=O)N[C@H](C(=O)N[C@@H](CC(N)=O)C(=O)N[C@H](C(=O)NCC(=O)N[C@@H](CO)C(=O)N[C@@H](CC(N)=O)C(=O)N[C@H](C(=O)N[C@@H](Cc1ccc(O)cc1)C(N)=O)[C@@H](C)O)C(C)C)[C@@H](C)O", "note": "[pramlintide, reference compound]", "values": [
      {"measurement": "postprandial glucose excursion", "setting": "[4]", "result": "attenuated the postprandial glucose excursion"}
    ]},
    {"smiles": "CCOC(=O)[C@@]1(CCCCCCOc2ccc(Cl)cc2)CO1", "note": "[etomoxir, reference compound]", "values": [
      {"measurement": "Blood Glucose", "setting": "[5]", "result": "lowered significantly"}
    ]},
    {"smiles": "CN(C)C(=O)[C@H](O)[C@H](Cc1ccccc1)NC(=O)c1cc2cc(Cl)ccc2[nH]1", "note": "[CP-91149, reference compound]", "values": [
      {"measurement": "blood glucose lowering", "setting": "Db/db or ob/ob mice", "result": "significantly lower blood glucose relative to control values"}
    ]},
    {"smiles": "Nc1ncnc2c1ncn2[C@@H]1O[C@H](COP(=O)(O)O)[C@@H](O)[C@H]1O", "note": "[AMP]", "values": [
      {"measurement": "IC50", "setting": "mouse liver FBPase", "result": 15, "unit": "µM"},
      {"measurement": "IC50", "setting": "human liver FBPase", "result": 1.3, "unit": "µM"},
      {"measurement": "IC50", "setting": "rat liver FBPase", "result": 25, "unit": "µM"}
    ]}
  ]
}
